Assay results taken from paper PMC12090182, “Repurposing of the RIPK1-Selective Benzo[1,4]oxazepin-4-one Scaffold for the Development of a Type III LIMK1/2 Inhibitor” (ACS Chemical Biology, 2025).
Where two headings read alike, the source gives them in different places.

Tested on: U2OS cells
Assay type: cell-based
Conditions: U2OS
Outline: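 HEK293T and U2OS cells (DMEM) and MRC-9 fibroblasts (EMEM) exposed to compounds at 1 and 10 μM. Live-cell confocal imaging of cell shape and fluorescence before and at 12, 24 and 48 h. Normalized to 0.1% DMSO; biological duplicates with SEM.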

[1] = 1 µM, 0 h, biological replicate 1
[2] = 1 µM, 0 h, biological replicate 2
[3] = 1 µM, 12 h, biological replicate 1
[4] = 1 µM, 12 h, biological replicate 2
[5] = 1 µM, 24 h, biological replicate 1
[6] = 1 µM, 24 h, biological replicate 2
[7] = 1 µM, 48 h, biological replicate 1
[8] = 1 µM, 48 h, biological replicate 2
[9] = 10 µM, 0 h, biological replicate 1
[10] = 10 µM, 0 h, biological replicate 2
[11] = 10 µM, 12 h, biological replicate 1
[12] = 10 µM, 12 h, biological replicate 2
[13] = 10 µM, 24 h, biological replicate 1
[14] = 10 µM, 24 h, biological replicate 2
[15] = 10 µM, 48 h, biological replicate 1
[16] = 10 µM, 48 h, biological replicate 2

SMILES: CC(C)C(=O)Nc1ncc(-c2cc(C(F)F)nn2-c2c(Cl)cccc2Cl)s1 [LIMKi3]
- Cell count normalized to cells treated with DMSO control [1]: 1.067
- Cell count per well [1]: 222
- Population Fragmented Nuclei (%) [1]: 50.47%
- Population Healthy Nuclei (%) [1]: 44.34%
- Population Pyknosed Nuclei (%) [1]: 5.19%
- Population apoptotic cell (%) [1]: 81.82%
- Population cell that influence microtubule strucutre (%) [1]: 3.19%
- Population with increased mitochondrial mass (%) [1]: 4.26%
- Population with membrane disruption (%) [1]: 8.51%
- Cell count normalized to cells treated with DMSO control [2]: 1.097
- Cell count per well [2]: 94
- Population Fragmented Nuclei (%) [2]: 27.47%
- Population Healthy Nuclei (%) [2]: 63.74%
- Population Pyknosed Nuclei (%) [2]: 8.79%
- Population apoptotic cell (%) [2]: 100.00%
- Population cell that influence microtubule strucutre (%) [2]: 5.17%
- Population with increased mitochondrial mass (%) [2]: 1.72%
- Population with membrane disruption (%) [2]: 5.17%
- Cell count normalized to cells treated with DMSO control [3]: 0.9868
- Cell count per well [3]: 261
- Population Fragmented Nuclei (%) [3]: 35.71%
- Population Healthy Nuclei (%) [3]: 57.94%
- Population Pyknosed Nuclei (%) [3]: 6.35%
- Population apoptotic cell (%) [3]: 81.25%
- Population cell that influence microtubule strucutre (%) [3]: 3.42%
- Population with increased mitochondrial mass (%) [3]: 2.05%
- Population with membrane disruption (%) [3]: 6.85%
- Cell count normalized to cells treated with DMSO control [4]: 1.091
- Cell count per well [4]: 129
- Population Fragmented Nuclei (%) [4]: 18.25%
- Population Healthy Nuclei (%) [4]: 76.98%
- Population Pyknosed Nuclei (%) [4]: 4.76%
- Population apoptotic cell (%) [4]: 100.00%
- Population cell that influence microtubule strucutre (%) [4]: 4.12%
- Population with increased mitochondrial mass (%) [4]: 4.12%
- Population with membrane disruption (%) [4]: 5.15%
- Cell count normalized to cells treated with DMSO control [5]: 0.9303
- Cell count per well [5]: 290
- Population Fragmented Nuclei (%) [5]: 30.77%
- Population Healthy Nuclei (%) [5]: 62.24%
- Population Pyknosed Nuclei (%) [5]: 6.99%
- Population apoptotic cell (%) [5]: 80.00%
- Population cell that influence microtubule strucutre (%) [5]: 2.25%
- Population with increased mitochondrial mass (%) [5]: 3.37%
- Population with membrane disruption (%) [5]: 5.06%
- Cell count normalized to cells treated with DMSO control [6]: 1.125
- Cell count per well [6]: 160
- Population Fragmented Nuclei (%) [6]: 21.52%
- Population Healthy Nuclei (%) [6]: 67.72%
- Population Pyknosed Nuclei (%) [6]: 10.76%
- Population apoptotic cell (%) [6]: 70.59%
- Population cell that influence microtubule strucutre (%) [6]: 1.87%
- Population with increased mitochondrial mass (%) [6]: 2.80%
- Population with membrane disruption (%) [6]: 4.67%
- Cell count normalized to cells treated with DMSO control [7]: 0.8403
- Cell count per well [7]: 374
- Population Fragmented Nuclei (%) [7]: 26.78%
- Population Healthy Nuclei (%) [7]: 61.48%
- Population Pyknosed Nuclei (%) [7]: 11.75%
- Population apoptotic cell (%) [7]: 86.05%
- Population cell that influence microtubule strucutre (%) [7]: 4.44%
- Population with increased mitochondrial mass (%) [7]: 2.67%
- Population with membrane disruption (%) [7]: 6.22%
- Cell count normalized to cells treated with DMSO control [8]: 0.9779
- Cell count per well [8]: 202
- Population Fragmented Nuclei (%) [8]: 17.50%
- Population Healthy Nuclei (%) [8]: 70.50%
- Population Pyknosed Nuclei (%) [8]: 12.00%
- Population apoptotic cell (%) [8]: 87.50%
- Population cell that influence microtubule strucutre (%) [8]: 4.26%
- Population with increased mitochondrial mass (%) [8]: 2.13%
- Population with membrane disruption (%) [8]: 6.38%
- Cell count normalized to cells treated with DMSO control [9]: 1.081
- Cell count per well [9]: 225
- Population Fragmented Nuclei (%) [9]: 43.12%
- Population Healthy Nuclei (%) [9]: 50.46%
- Population Pyknosed Nuclei (%) [9]: 6.42%
- Population apoptotic cell (%) [9]: 78.57%
- Population cell that influence microtubule strucutre (%) [9]: 4.55%
- Population with increased mitochondrial mass (%) [9]: 3.64%
- Population with membrane disruption (%) [9]: 7.27%
- Cell count normalized to cells treated with DMSO control [10]: 1.132
- Cell count per well [10]: 97
- Population Fragmented Nuclei (%) [10]: 17.53%
- Population Healthy Nuclei (%) [10]: 71.13%
- Population Pyknosed Nuclei (%) [10]: 11.34%
- Population apoptotic cell (%) [10]: 90.91%
- Population cell that influence microtubule strucutre (%) [10]: 5.80%
- Population with increased mitochondrial mass (%) [10]: 10.14%
- Population with membrane disruption (%) [10]: 5.80%
- Cell count normalized to cells treated with DMSO control [11]: 0.8507
- Cell count per well [11]: 225
- Population Fragmented Nuclei (%) [11]: 35.24%
- Population Healthy Nuclei (%) [11]: 45.24%
- Population Pyknosed Nuclei (%) [11]: 19.52%
- Population apoptotic cell (%) [11]: 63.41%
- Population cell that influence microtubule strucutre (%) [11]: 84.21%
- Population with increased mitochondrial mass (%) [11]: 51.58%
- Population with membrane disruption (%) [11]: 77.89%
- Cell count normalized to cells treated with DMSO control [12]: 0.9469
- Cell count per well [12]: 112
- Population Fragmented Nuclei (%) [12]: 12.15%
- Population Healthy Nuclei (%) [12]: 68.22%
- Population Pyknosed Nuclei (%) [12]: 19.63%
- Population apoptotic cell (%) [12]: 57.14%
- Population cell that influence microtubule strucutre (%) [12]: 86.30%
- Population with increased mitochondrial mass (%) [12]: 68.49%
- Population with membrane disruption (%) [12]: 67.12%
- Cell count normalized to cells treated with DMSO control [13]: 0.7058
- Cell count per well [13]: 220
- Population Fragmented Nuclei (%) [13]: 35.92%
- Population Healthy Nuclei (%) [13]: 37.86%
- Population Pyknosed Nuclei (%) [13]: 26.21%
- Population apoptotic cell (%) [13]: 55.56%
- Population cell that influence microtubule strucutre (%) [13]: 78.21%
- Population with increased mitochondrial mass (%) [13]: 65.38%
- Population with membrane disruption (%) [13]: 65.38%
- Cell count normalized to cells treated with DMSO control [14]: 0.7383
- Cell count per well [14]: 105
- Population Fragmented Nuclei (%) [14]: 11.11%
- Population Healthy Nuclei (%) [14]: 58.59%
- Population Pyknosed Nuclei (%) [14]: 30.30%
- Population apoptotic cell (%) [14]: 60.00%
- Population cell that influence microtubule strucutre (%) [14]: 75.86%
- Population with increased mitochondrial mass (%) [14]: 65.52%
- Population with membrane disruption (%) [14]: 53.45%
- Cell count normalized to cells treated with DMSO control [15]: 0.528
- Cell count per well [15]: 235
- Population Fragmented Nuclei (%) [15]: 37.96%
- Population Healthy Nuclei (%) [15]: 28.70%
- Population Pyknosed Nuclei (%) [15]: 33.33%
- Population apoptotic cell (%) [15]: 68.06%
- Population cell that influence microtubule strucutre (%) [15]: 77.42%
- Population with increased mitochondrial mass (%) [15]: 54.84%
- Population with membrane disruption (%) [15]: 80.65%
- Cell count normalized to cells treated with DMSO control [16]: 0.6342
- Cell count per well [16]: 131
- Population Fragmented Nuclei (%) [16]: 20.83%
- Population Healthy Nuclei (%) [16]: 49.17%
- Population Pyknosed Nuclei (%) [16]: 30.00%
- Population apoptotic cell (%) [16]: 77.78%
- Population cell that influence microtubule strucutre (%) [16]: 77.97%
- Population with increased mitochondrial mass (%) [16]: 54.24%
- Population with membrane disruption (%) [16]: 67.80%
